Activity calls are given as the source filed them. The calls are words filed in the database; no cut-off is given here.
Columns and labels:
[1] = Toxicity in iv dosed mouse measured for 24 hrs; type: organism-based; conditions: in vivo
[2] = Toxicity in po dosed mouse measured for 24 hrs; type: organism-based; conditions: in vivo
Pichia kudriavzevii [3] = experiment: Antifungal activity against Candida krusei ATCC 34135 assessed as reduction in fungal growth incubated for 48 hrs in presence of ergosterol by broth microdilution method; type: functional
Candida albicans [4] = experiment: Antifungal activity against Candida albicans ATCC 10231 assessed as reduction in fungal growth incubated for 48 hrs in presence of ergosterol by broth microdilution method; type: functional
Candida albicans [5] = experiment: Disruption of cell membrane in Candida albicans ATCC 10231 assessed as increase in intracellular leakage at MIC incubated for 24 hrs by UV spectrophotometric analysis; type: cell-based
Candida tropicalis [6] = experiment: Antifungal activity against Candida tropicalis ATCC 28707 assessed as reduction in fungal growth incubated for 48 hrs in presence of ergosterol by broth microdilution method; type: functional
Candida albicans [7] = experiment: Antifungal activity against Candida albicans isolate 2 assessed as reduction in fungal growth incubated for 48 hrs by broth microdilution method; type: functional
Candida albicans [8] = experiment: Fungicidal activity against Candida albicans isolate 7 assessed as fungal killing incubated for 48 hrs followed by plating on SD agar plate; type: functional; conditions: read-out: MFC99.9
Candida albicans [9] = experiment: Fungicidal activity against Candida albicans isolate 2 assessed as fungal killing incubated for 48 hrs followed by plating on SD agar plate; type: functional; conditions: read-out: MFC99.9
Candida albicans [10] = experiment: Antifungal activity against Candida albicans isolate 3 assessed as reduction in fungal growth incubated for 48 hrs by broth microdilution method; type: functional
Candida albicans [11] = experiment: Antifungal activity against Candida albicans isolate 10 assessed as reduction in fungal growth incubated for 48 hrs by broth microdilution method; type: functional
Candida albicans [12] = experiment: Antibiofilm activity against Candida albicans ATCC 10231 assessed as reduction in mature biofilm at 125 ug/ml incubated for 48 hrs by crystal violet staining based spectrophotometric analysis relative to control; type: functional
Candida albicans [13] = experiment: Antifungal activity against Candida albicans ATCC 10231 assessed as inhibition of yeast to hypha morphological transition at 15.6 ug/ml measured upto 72 hrs by microscopic analysis; type: functional, organism-based; conditions: dose 15.6 µg/ml, time hrs <=72
Candida albicans [14] = experiment: Antifungal activity against Candida albicans isolate 13 assessed as reduction in fungal growth incubated for 48 hrs by broth microdilution method; type: functional
Pichia kudriavzevii [15] = experiment: Antifungal activity against Candida krusei ATCC 34135 assessed as reduction in fungal growth incubated for 48 hrs by broth microdilution method; type: functional
Candida albicans [16] = experiment: Fungicidal activity against Candida albicans ATCC 10231 assessed as reduction in fungal load at 7.8 ug/ml incubated for 36 hrs followed by inoculation on SD agar plate for 48 hrs by time-kill assay; type: functional, organism-based; conditions: dose 7.8 µg/ml, time 84.0 hrs
Nakaseomyces glabratus [17] = experiment: Antifungal activity against Candida glabrata ATCC 2001 assessed as reduction in fungal growth incubated for 48 hrs in presence of ergosterol by broth microdilution method; type: functional
Pichia kudriavzevii [18] = experiment: Fungicidal activity against Candida krusei ATCC 34135 assessed as fungal killing incubated for 48 hrs followed by plating on SD agar plate; type: functional; conditions: read-out: MFC99.9
Nakaseomyces glabratus [19] = experiment: Fungicidal activity against Candida glabrata ATCC 2001 assessed as fungal killing incubated for 48 hrs followed by plating on SD agar plate; type: functional; conditions: read-out: MFC99.9
Candida albicans [20] = experiment: Fungicidal activity against Candida albicans isolate 8 assessed as fungal killing incubated for 48 hrs followed by plating on SD agar plate; type: functional; conditions: read-out: MFC99.9
Candida albicans [21] = experiment: Antifungal activity against Candida albicans isolate 7 assessed as reduction in fungal growth incubated for 48 hrs by broth microdilution method; type: functional
Candida albicans [22] = experiment: Fungicidal activity against Candida albicans isolate 6 assessed as fungal killing incubated for 48 hrs followed by plating on SD agar plate; type: functional; conditions: read-out: MFC99.9
Candida albicans [23] = experiment: Antifungal activity against Candida albicans isolate 1 assessed as reduction in fungal growth incubated for 48 hrs by broth microdilution method; type: functional
Candida tropicalis [24] = experiment: Antifungal activity against Candida tropicalis ATCC 28707 assessed as reduction in fungal growth incubated for 48 hrs by broth microdilution method; type: functional
Nakaseomyces glabratus [25] = experiment: Antifungal activity against Candida glabrata ATCC 2001 assessed as reduction in fungal growth incubated for 48 hrs in presence of sorbitol by broth microdilution method; type: functional
Nakaseomyces glabratus [26] = experiment: Disruption of cell membrane in Candida glabrata ATCC 2001 assessed as increase in intracellular leakage at MIC incubated for 24 hrs by UV spectrophotometric analysis; type: cell-based
Candida albicans [27] = experiment: Antifungal activity against Candida albicans isolate 11 assessed as reduction in fungal growth incubated for 48 hrs by broth microdilution method; type: functional
Pichia kudriavzevii [28] = experiment: Antifungal activity against Candida krusei ATCC 34135 assessed as reduction in fungal growth incubated for 48 hrs in presence of sorbitol by broth microdilution method; type: functional
Candida albicans [29] = experiment: Antifungal activity against Candida albicans isolate 6 assessed as reduction in fungal growth incubated for 48 hrs by broth microdilution method; type: functional
Candida albicans [30] = experiment: Antifungal activity against Candida albicans isolate 4 assessed as reduction in fungal growth incubated for 48 hrs by broth microdilution method; type: functional
Candida albicans [31] = experiment: Antifungal activity against Candida albicans ATCC 10231 assessed as reduction in fungal growth incubated for 48 hrs in presence of sorbitol by broth microdilution method; type: functional
Candida tropicalis [32] = experiment: Fungicidal activity against Candida tropicalis ATCC 28707 assessed as fungal killing incubated for 48 hrs followed by plating on SD agar plate; type: functional; conditions: read-out: MFC99.9
Candida albicans [33] = experiment: Fungicidal activity against Candida albicans isolate 3 assessed as fungal killing incubated for 48 hrs followed by plating on SD agar plate; type: functional; conditions: read-out: MFC99.9
Candida albicans [34] = experiment: Fungicidal activity against Candida albicans isolate 13 assessed as fungal killing incubated for 48 hrs followed by plating on SD agar plate; type: functional; conditions: read-out: MFC99.9
Candida albicans [35] = experiment: Fungicidal activity against Candida albicans isolate 9 assessed as fungal killing incubated for 48 hrs followed by plating on SD agar plate; type: functional; conditions: read-out: MFC99.9
Candida albicans [36] = experiment: Fungicidal activity against Candida albicans isolate 4 assessed as fungal killing incubated for 48 hrs followed by plating on SD agar plate; type: functional; conditions: read-out: MFC99.9
Pichia kudriavzevii [37] = experiment: Disruption of cell membrane in Candida krusei ATCC 34135 assessed as increase in intracellular leakage at MIC incubated for 24 hrs by UV spectrophotometric analysis; type: cell-based
Candida albicans [38] = experiment: Fungicidal activity against Candida albicans isolate 5 assessed as fungal killing incubated for 48 hrs followed by plating on SD agar plate; type: functional; conditions: read-out: MFC99.9
Nakaseomyces glabratus [39] = experiment: Antifungal activity against Candida glabrata ATCC 2001 assessed as reduction in fungal growth incubated for 48 hrs by broth microdilution method; type: functional
Candida albicans [40] = experiment: Antifungal activity against Candida albicans isolate 5 assessed as reduction in fungal growth incubated for 48 hrs by broth microdilution method; type: functional
Candida tropicalis [41] = experiment: Disruption of cell membrane in Candida tropicalis ATCC 28707 assessed as increase in intracellular leakage at MIC incubated for 24 hrs by UV spectrophotometric analysis; type: cell-based
Candida albicans [42] = experiment: Fungicidal activity against Candida albicans isolate 11 assessed as fungal killing incubated for 48 hrs followed by plating on SD agar plate; type: functional; conditions: read-out: MFC99.9
Candida albicans [43] = experiment: Fungicidal activity against Candida albicans ATCC 18804 assessed as fungal killing incubated for 48 hrs followed by plating on SD agar plate; type: functional; conditions: read-out: MFC99.9
Candida albicans [44] = experiment: Antifungal activity against Candida albicans isolate 12 assessed as reduction in fungal growth incubated for 48 hrs by broth microdilution method; type: functional
Candida albicans [45] = experiment: Fungicidal activity against Candida albicans isolate 12 assessed as fungal killing incubated for 48 hrs followed by plating on SD agar plate; type: functional; conditions: read-out: MFC99.9
Candida albicans [46] = experiment: Antifungal activity against Candida albicans isolate 9 assessed as reduction in fungal growth incubated for 48 hrs by broth microdilution method; type: functional
Candida albicans [47] = experiment: Fungicidal activity against Candida albicans ATCC 10231 assessed as fungal killing incubated for 48 hrs followed by plating on SD agar plate; type: functional; conditions: read-out: MFC99.9
Candida albicans [48] = experiment: Antibiofilm activity against Candida albicans ATCC 10231 assessed as reduction in biofilm formation at 0.24 to 7.81 ug/ml by crystal violet staining based spectrophotometric analysis; type: functional, organism-based; conditions: dose 0.24-7.81 µg/ml
Candida albicans [49] = experiment: Fungicidal activity against Candida albicans isolate 10 assessed as fungal killing incubated for 48 hrs followed by plating on SD agar plate; type: functional; conditions: read-out: MFC99.9
Candida albicans [50] = experiment: Fungicidal activity against Candida albicans isolate 1 assessed as fungal killing incubated for 48 hrs followed by plating on SD agar plate; type: functional; conditions: read-out: MFC99.9
Candida albicans [51] = experiment: Fungicidal activity against Candida albicans ATCC 10231 assessed as reduction in fungal load at 31.25 ug/ml incubated for 12 hrs followed by inoculation on SD agar plate for 48 hrs by time-kill assay; type: functional, organism-based; conditions: dose 31.25 µg/ml, time 60.0 hrs
Candida tropicalis [52] = experiment: Antifungal activity against Candida tropicalis ATCC 28707 assessed as reduction in fungal growth incubated for 48 hrs in presence of sorbitol by broth microdilution method; type: functional
Candida albicans [53] = experiment: Antifungal activity against Candida albicans ATCC 18804 assessed as reduction in fungal growth incubated for 48 hrs by broth microdilution method; type: functional
Candida albicans [54] = experiment: Antifungal activity against Candida albicans ATCC 10231 assessed as reduction in fungal growth incubated for 48 hrs by broth microdilution method; type: functional
Candida albicans [55] = experiment: Antifungal activity against Candida albicans isolate 8 assessed as reduction in fungal growth incubated for 48 hrs by broth microdilution method; type: functional

COc1cc2c(cc1OC)[C@@H]1N(C)Cc3c(cc(OC)c4c3OCO4)[C@]1(C)[C@H](O)C2
LD50 at 24 h [1]: 41.6 mg/kg
LD50 at 24 h [2]: 800 mg/kg

CCCC[n+]1cccc(CCCOCCCCCCCCCCCCN=[N+]=[N-])c1.[I-]
MIC (Pichia kudriavzevii [3]): 3.9 µg/mL
MIC (Candida albicans [4]): 7.8 µg/mL
Activity (Candida albicans [5]): Active
MIC (Candida tropicalis [6]): 7.8 µg/mL
MIC (Candida albicans [7]): 7.8 µg/mL
MFC (Candida albicans [8]): 7.8 µg/mL
MFC (Candida albicans [9]): 7.8 µg/mL
MIC (Candida albicans [10]): 3.9 µg/mL
MIC (Candida albicans [11]): 15.6 µg/mL
inhibition at 125 µg/mL (Candida albicans [12]): 50%
Activity (Candida albicans [13]): Active
MIC (Candida albicans [14]): 7.8 µg/mL
MIC (Pichia kudriavzevii [15]): 3.9 µg/mL
Activity (Candida albicans [16]): Active
MIC (Nakaseomyces glabratus [17]): 15.6 µg/mL
MFC (Pichia kudriavzevii [18]): 3.9 µg/mL
MFC (Nakaseomyces glabratus [19]): 15.6 µg/mL
MFC (Candida albicans [20]): 7.8 µg/mL
MIC (Candida albicans [21]): 7.8 µg/mL
MFC (Candida albicans [22]): 31.2 µg/mL
MIC (Candida albicans [23]): 7.8 µg/mL
MIC (Candida tropicalis [24]): 7.8 µg/mL
MIC (Nakaseomyces glabratus [25]): 7.8 µg/mL
Activity (Nakaseomyces glabratus [26]): Active
MIC (Candida albicans [27]): 7.8 µg/mL
MIC (Pichia kudriavzevii [28]): 3.9 µg/mL
MIC (Candida albicans [29]): 15.6 µg/mL
MIC (Candida albicans [30]): 1.95 µg/mL
MIC (Candida albicans [31]): 7.8 µg/mL
MFC (Candida tropicalis [32]): 15.6 µg/mL
MFC (Candida albicans [33]): 3.9 µg/mL
MFC (Candida albicans [34]): 7.8 µg/mL
MFC (Candida albicans [35]): 31.2 µg/mL
MFC (Candida albicans [36]): 3.9 µg/mL
Activity (Pichia kudriavzevii [37]): Active
MFC (Candida albicans [38]): 3.9 µg/mL
MIC (Nakaseomyces glabratus [39]): 7.8 µg/mL
MIC (Candida albicans [40]): 3.9 µg/mL
Activity (Candida tropicalis [41]): Active
MFC (Candida albicans [42]): 7.8 µg/mL
MFC (Candida albicans [43]): 125 µg/mL
MIC (Candida albicans [44]): 7.8 µg/mL
MFC (Candida albicans [45]): 7.8 µg/mL
MIC (Candida albicans [46]): 15.6 µg/mL
MFC (Candida albicans [47]): 31.2 µg/mL
Activity (Candida albicans [48]): Active
MFC (Candida albicans [49]): 31.2 µg/mL
MFC (Candida albicans [50]): 62.5 µg/mL
Activity (Candida albicans [51]): Active
MIC (Candida tropicalis [52]): 7.8 µg/mL
MIC (Candida albicans [53]): 7.8 µg/mL
MIC (Candida albicans [54]): 7.8 µg/mL
MIC (Candida albicans [55]): 3.9 µg/mL
